Active and inactive are the calls of the source. The calls are words filed in the database; no cut-off is given here.
Columns and labels:
[1] = system: MCF7; experiment: Antiproliferative activity against human MCF7 cells assessed as inhibition of cell proliferation measured by MTT assay; assay type: functional, cell-based
[2] = system: 4T1; experiment: Antiproliferative activity against mouse 4T1 cells assessed as inhibition of cell proliferation measured by MTT assay; assay type: functional, cell-based
[3] = system: MDA-MB-231; experiment: Antiproliferative activity against human MDA-MB-231 cells assessed as inhibition of cell proliferation measured by MTT assay; assay type: functional, cell-based
[4] = system: WiDr; experiment: Antiproliferative activity against human WiDr cells assessed as inhibition of cell proliferation measured by MTT assay; assay type: functional, cell-based
[5] = Antiproliferative activity against mouse 67NR cells assessed as inhibition of cell proliferation measured by MTT assay; assay type: functional, cell-based
[6] = system: MIA PaCa-2; experiment: Antiproliferative activity against human MIA PaCa-2 cells assessed as inhibition of cell proliferation measured by MTT assay; assay type: functional, cell-based
[7] = system: 4T1; experiment: Antiproliferative activity against mouse 4T1 cells assessed as inhibition of cell proliferation measured by SRB assay; assay type: functional, cell-based
[8] = system: MIA PaCa-2; experiment: Antiproliferative activity against human MIA PaCa-2 cells assessed as inhibition of cell proliferation measured by SRB assay; assay type: functional, cell-based
[9] = system: MCF7; experiment: Antiproliferative activity against human MCF7 cells assessed as inhibition of cell proliferation measured by SRB assay; assay type: functional, cell-based
[10] = Antiproliferative activity against mouse 67NR cells assessed as inhibition of cell proliferation measured by SRB assay; assay type: functional, cell-based
[11] = system: WiDr; experiment: Antiproliferative activity against human WiDr cells assessed as inhibition of cell proliferation measured by SRB assay; assay type: functional, cell-based
[12] = system: MDA-MB-231; experiment: Antiproliferative activity against human MDA-MB-231 cells assessed as inhibition of cell proliferation measured by SRB assay; assay type: functional, cell-based
[13] = Toxicity against CD-1 mouse assessed as changes in body weight at 10 mg/kg for 6 days per week measured after 14 days; assay type: organism-based; settings: in vivo
[14] = Toxicity against CD-1 mouse assessed as changes in grooming pattern at 10 mg/kg for 6 days per week measured after 14 days; assay type: organism-based; settings: in vivo, 336 h, time 14 day
[15] = Cytotoxicity against human HDFa cells assessed as inhibition of cell proliferation; assay type: cell-based
[16] = system: 4T1; experiment: Induction of mitochondrial stress in mouse 4T1 cells assessed as decrease in mitochondrial respiration in presence of oligomycin/FCCP/antimycin A/rotenone by seahorse XFe96 analyser based assay; assay type: functional, cell-based; settings: dose 0.625-10 µM
[17] = system: 4T1; experiment: Induction of mitochondrial stress in mouse 4T1 cells assessed as proton leak across mitochondrial inner membrane in presence of oligomycin/FCCP/antimycin A/rotenone by seahorse XFe96 analyser based assay; assay type: functional, cell-based; settings: dose 0.625-10 µM
[18] = system: 4T1; experiment: Induction of mitochondrial stress in mouse 4T1 cells assessed as effect on spare respiratory capacity at 5 to 10 uM in presence of oligomycin/FCCP/antimycin A/rotenone by seahorse XFe96 analyser based assay; assay type: functional, cell-based; settings: dose 5-10 µM
[19] = system: 4T1; experiment: Induction of mitochondrial stress in mouse 4T1 cells assessed as decrease in ATP production in presence of oligomycin/FCCP/antimycin A/rotenone by seahorse XFe96 analyser based assay; assay type: functional, cell-based; settings: dose 0.625-10 µM
[20] = system: MDA-MB-231; experiment: Induction of mitochondrial stress in human MDA-MB-231 cells assessed as proton leak across mitochondrial inner membrane in presence of oligomycin/FCCP/antimycin A/rotenone by seahorse XFe96 analyser based assay; assay type: functional, cell-based; settings: dose 0.3125-10 µM
[21] = system: MDA-MB-231; experiment: Induction of mitochondrial stress in human MDA-MB-231 cells assessed as decrease in ATP production at 0.3125 to 10 uM in presence of oligomycin/FCCP/antimycin A/rotenone by seahorse XFe96 analyser based assay; assay type: functional, cell-based; settings: dose 0.3125-10 µM
[22] = system: MDA-MB-231; experiment: Induction of mitochondrial stress in human MDA-MB-231 cells assessed as decrease in mitochondrial respiration at 0.625 to 10 uM in presence of oligomycin/FCCP/antimycin A/rotenone by seahorse XFe96 analyser based assay; assay type: functional, cell-based; settings: dose 0.625-10 µM

Row | SMILES | IC50 [1] [µM] | IC50 [2] [µM] | IC50 [3] [µM] | IC50 [6] [µM] | IC50 [4] [µM] | IC50 [5] [µM] | also measured
1 | COC(=O)/C(=C/c1ccc(Br)cc1)C[P+](c1ccc(OC)cc1)(c1ccc(OC)cc1)c1ccc(OC)cc1 | 1.24 | 1.21 | 1.91 | 0.73 | 0.9 | 2.9 | IC50 [7]: 1.25 µM; IC50 [8]: 0.29 µM; IC50 [9]: 0.17 µM; IC50 [10]: 1.78 µM; IC50 [11]: 0.81 µM; IC50 [12]: 0.94 µM
2 | COC(=O)/C(=C/c1ccc(OC)cc1)C[P+](c1ccc(OC)cc1)(c1ccc(OC)cc1)c1ccc(OC)cc1.[Br-] | 1.4 | 3.36 | 3.7 | 1.37 | 1.14 | 4.59 | Activity [13]: Non-Toxic; IC50 [7]: 1.83 µM; Activity [14]: Non-Toxic; IC50 [8]: 0.31 µM; IC50 [9]: 0.17 µM; IC50 [10]: 2.56 µM; IC50 [11]: 0.76 µM; IC50 [12]: 2.19 µM; IC50 [15]: 23.9 µM
3 | COC(=O)/C(=C/c1ccc(C#N)cc1)C[P+](c1ccc(OC)cc1)(c1ccc(OC)cc1)c1ccc(OC)cc1 | 4.49 | 20.4 | 12.5 | 7.86 | 4.87 | > 100 | –
4 | COC(=O)/C(=C/c1ccc(C)cc1)C[P+](c1ccc(OC)cc1)(c1ccc(OC)cc1)c1ccc(OC)cc1 | 7.47 | 5.23 | 9.79 | 0.34 | 2.58 | 2.78 | –
5 | COC(=O)/C(=C/c1ccc(F)cc1)C[P+](c1ccc(OC)cc1)(c1ccc(OC)cc1)c1ccc(OC)cc1 | 1.42 | 4.57 | 7.41 | 1.29 | 2.14 | 5.14 | –
6 | COC(=O)/C(=C/c1ccc([N+](=O)[O-])cc1)C[P+](c1ccc(OC)cc1)(c1ccc(OC)cc1)c1ccc(OC)cc1 | 8.83 | 4.73 | 8.29 | 5.59 | 5.95 | 28.7 | –
7 | COc1ccc([P+](C/C(=C\c2ccc(Br)cc2)C(=O)OC(C)(C)C)(c2ccc(OC)cc2)c2ccc(OC)cc2)cc1 | 0.64 | 0.86 | 2.1 | 0.36 | 0.95 | 0.62 | IC50 [7]: 0.5 µM; Activity [16]: Dose-Dependent Effect; Activity [17]: Dose-Dependent Effect; IC50 [8]: 0.2 µM; Activity [18]: Active; Activity [19]: Dose-Dependent Effect; Activity [20]: Dose-Dependent Effect; IC50 [9]: 0.063 µM; IC50 [10]: 0.47 µM; IC50 [11]: 0.14 µM; Activity [21]: Active; IC50 [12]: 0.58 µM; Activity [22]: Active; IC50 [15]: 5.5 µM

Now from value to compound, other results behind:

Row | IC50 [1] [µM] | IC50 [2] [µM] | IC50 [3] [µM] | IC50 [6] [µM] | SMILES | IC50 [4] [µM] | IC50 [5] [µM] | also measured
8 | 0.98 | 1.08 | 2.69 | 1.39 | C=C(C[P+](c1ccc(OC)cc1)(c1ccc(OC)cc1)c1ccc(OC)cc1)C(=O)OC(C)(C)C | 0.81 | 2.17 | –
9 | > 100 | > 100 | > 100 | > 100 | C=C(C[P+](c1ccccc1)(c1ccccc1)c1ccccc1)C(=O)N(C)C | 81.2 | > 100 | –
10 | 1.99 | 2.76 | 2.88 | 2.87 | C=C(C[P+](c1ccccc1)(c1ccccc1)c1ccccc1)C(=O)OC(C)(C)C | 2.08 | 7.57 | –
11 | 2.78 | 1.85 | 4.87 | 3.6 | C=C(C[P+](c1ccc(OC)cc1)(c1ccc(OC)cc1)c1ccc(OC)cc1)C(=O)OC | 1.62 | 10.6 | –
12 | 2.67 | 7.2 | 9.27 | 4.59 | COC(=O)/C(=C/c1ccccc1)C[P+](c1ccc(OC)cc1)(c1ccc(OC)cc1)c1ccc(OC)cc1 | 2.74 | 4.87 | –
13 | 19.9 | 14.8 | 28.9 | 27.4 | C=C(C[P+](c1ccccc1)(c1ccccc1)c1ccccc1)C(=O)OC | 7.74 | 58.4 | –
14 | 47 | 61.9 | 91.1 | 100 | C=C(C[P+](c1ccc(F)cc1)(c1ccc(F)cc1)c1ccc(F)cc1)C(=O)OC | 19 | 73.9 | –
15 | 1.37 | 0.98 | 3.01 | 0.59 | COC(=O)/C(=C/c1ccc(Cl)cc1)C[P+](c1ccc(OC)cc1)(c1ccc(OC)cc1)c1ccc(OC)cc1 | 1.32 | – | –
16 | 2.43 | 1.78 | 3.79 | 2.66 | C=C(C[P+](c1ccc(C)cc1)(c1ccc(C)cc1)c1ccc(C)cc1)C(=O)OC | 1.48 | 5.34 | –

Reference: ChEMBL document CHEMBL4811282, “Synthesis and biological evaluation of novel 2-alkoxycarbonylallylester phosphonium derivatives as potential anticancer agents” (Bioorg Med Chem Lett, 2021)
